Experimental data taken from patent US8022225B2, “Triazole derivative” (Taisho Pharmaceutical Co., Ltd, priority 2004, dated 2011).

Key:
human Edg-1(S1P1) [1] = target: T1, human Edg-1(S1P1) (Homo sapiens, UniProt P21453); experiment: Cell system binding test: inhibition of [3H]-S1P binding to Edg-1(S1P1) gene transferred HEK-293 cells; conditions: [3H]-S1P 10 nM
T1 construct: expressed in transfected cells; host or cells: HEK-293

human Edg-1(S1P1) [2] = target: T1, human Edg-1(S1P1); experiment: Membrane system binding test: inhibition of [33P]-S1P binding to the membrane fraction of Edg-1(S1P1) gene transferred HEK-293 cells; conditions: [33P]-S1P 0.1 nM
Summary of the method: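 Compound tested at 10^−5 M final (0.1% DMSO) for blocking 0.1 nM [^33P]-S1P binding to S1P1-expressing HEK-293 membranes, 30 °C, 1 h. Radioactivity retained on filters was counted, and percent inhibition derived relative to vehicle binding, correcting for the background of non-transfected HEK-293 membranes.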

[3] = 10 μM compound, read-out: Cell system binding test % inhibition (10 μM)
[4] = 10 μM compound, membrane fraction of Edg-1(S1P1) gene transferred HEK-293 cells, read-out: Membrane system binding test % inhibition (10 μM)
[5] = test compound 10^-5 M, 1 hour, read-out: Edg-1(S1P1) binding inhibition rate (cell system binding test)
[6] = test compound 10^-5 M, 1 hour at 30° C., HEK-293 membrane fraction, read-out: Edg-1(S1P1) binding inhibition rate (membrane system binding test)

T1 sequence (P21453 whole entry): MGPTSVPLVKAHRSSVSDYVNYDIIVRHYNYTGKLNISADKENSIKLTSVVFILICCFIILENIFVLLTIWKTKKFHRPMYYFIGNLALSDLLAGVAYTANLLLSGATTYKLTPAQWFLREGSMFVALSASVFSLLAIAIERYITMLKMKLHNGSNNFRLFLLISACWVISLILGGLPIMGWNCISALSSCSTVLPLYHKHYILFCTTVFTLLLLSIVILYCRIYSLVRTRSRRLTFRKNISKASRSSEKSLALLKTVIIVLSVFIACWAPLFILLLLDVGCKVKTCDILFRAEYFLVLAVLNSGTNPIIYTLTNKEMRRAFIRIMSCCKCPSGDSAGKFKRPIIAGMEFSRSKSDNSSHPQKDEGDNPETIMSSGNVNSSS

Structure (SMILES)	inhibition at 10 µM (human Edg-1(S1P1) [1]; [3]) [%]	inhibition at 10 µM (human Edg-1(S1P1) [2]; [4]) [%]	melting point [°C]	inhibition at 10 µM (human Edg-1(S1P1) [1]; [5]) [%]	inhibition at 10 µM (human Edg-1(S1P1) [2]; [6]) [%]
CCn1c(SC)nnc1[C@@H](C)NS(=O)(=O)c1ccc(Cl)cc1 [Compound 1, 4-chloro-N-{(1R)-1-[4-ethyl-5-(methylthio)-4H-1,2,4-triazol-3-yl]ethyl}benzenesulfonamide]	89.8	72.3	176 to 177		
CCn1c(S)nnc1[C@@H](C)NS(=O)(=O)c1ccc(Cl)cc1 [Compound 90, 4-chloro-N-[(1R)-1-(4-ethyl-5-mercapto-4H-1,2,4-triazol-3-yl)ethyl]benzenesulfonamide]	60.6	48.8	169.5 to 172.5		
C=CCSc1nnc([C@@H](C)N(C)S(=O)(=O)c2ccc(Cl)cc2)n1CC [Compound 99, N-{(1R)-1-[5-(allylthio)-4-ethyl-4H-1,2,4-triazol-3-yl]ethyl}-4-chloro-N-methylbenzenesulfonamide]	75.8	57.4	142 to 143		
C=CCSc1nnc(C(CCC)NS(=O)(=O)c2ccc(Cl)cc2)n1C (centres unmarked) [Compound 125, N-{1-[(5-allylthio)-4-methyl-4H-1,2,4-triazol-3-yl]butyl}-4-chlorobenzenesulfonamide]	69	52.4	161.5 to 162		
CCn1c([C@@H](C)NS(=O)(=O)c2ccc(Cl)cc2)nnc1S(C)(=O)=O [Compound 182, 4-Chloro-N-{(1R)-1-[4-ethyl-5-(methylsulfonyl)-4H-1,2,4-triazol-3-yl]ethyl}benzenesulfonamide]	53.7		129 to 130		
CCCOc1nnc([C@@H](C)NS(=O)(=O)c2ccc(Cl)cc2)n1CC [Compound 183, 4-Chloro-N-[(1R)-1-(4-ethyl-5-propoxy-4H-1,2,4-triazol-3-yl)ethyl]benzenesulfonamide]	89.2	97.7	150.5 to 151.5		
CCn1c(OC)nnc1[C@@H](C)NS(=O)(=O)c1ccccc1 [Compound 376, [(1R)-1-(4-Ethyl-5-methoxy-4H-[1,2,4]triazol-3-yl)ethyl]benzenesulfonamide]	90.7	57.3	161 to 162		
CCn1c(OC(C)C)nnc1[C@@H](C)NS(=O)(=O)c1cc(Cl)c(Cl)s1 [Compound 475]				97.9	86.4
CCn1c(OC(C)C)nnc1[C@@H](C)NS(=O)(=O)c1ccc(I)cc1 [Compound 476]				100	86.1
CCn1c(OC(C)C)nnc1[C@@H](C)NS(=O)(=O)c1ccc(F)cc1 [Compound 477]				92	77.1
CCn1c(OC(C)C)nnc1[C@@H](C)NS(=O)(=O)c1ccc(Br)c(C(F)(F)F)c1 [Compound 478]				104	86
CCn1c(OC(C)C)nnc1[C@@H](C)NS(=O)(=O)c1cccc(Cl)c1 [Compound 479]				93.3	83
CCc1ccc(S(=O)(=O)N[C@H](C)c2nnc(OC(C)C)n2CC)cc1 [Compound 480]				93.1	77.4
CCn1c(OC(C)C)nnc1[C@@H](C)NS(=O)(=O)c1cccc(OC)c1 [Compound 481]				96.3	64.9
CCn1c(OC(C)C)nnc1[C@@H](C)NS(=O)(=O)c1cc(F)c(Br)cc1F [Compound 482]				90.7	72.3
CCn1c(OCC(F)(F)F)nnc1[C@@H](C)NS(=O)(=O)c1ccc(Br)s1 [Compound 484]				102	63.2
CCn1c(OCC(F)(F)F)nnc1[C@@H](C)NS(=O)(=O)c1ccc(Cl)c(Cl)c1 [Compound 485]				103	95.5
CCn1c(OCC(F)(F)F)nnc1[C@@H](C)NS(=O)(=O)c1ccc(C)c(Cl)c1 [Compound 486]				99.5	93.8
CCn1c(OCC(F)(F)F)nnc1[C@@H](C)NS(=O)(=O)c1ccc(Br)c(F)c1 [Compound 487]				99.6	90.4
CCn1c(OCC(F)(F)F)nnc1[C@@H](C)NS(=O)(=O)c1ccc(F)c(Cl)c1 [Compound 488]				102	91.4
CCn1c(OCC(F)(F)F)nnc1[C@@H](C)NS(=O)(=O)c1ccc(Br)c(C)c1 [Compound 489]				103	98.4
CCn1c(OCC(F)(F)F)nnc1[C@@H](C)NS(=O)(=O)c1cc(F)c(F)c(F)c1 [Compound 490]				101	88.9
CCn1c(OCC(F)(F)F)nnc1[C@@H](C)NS(=O)(=O)c1cccc(Br)c1 [Compound 491]				88.9	75.7
CCn1c(OCC(F)(F)F)nnc1[C@@H](C)NS(=O)(=O)c1ccc(Br)cc1 [Compound 492]				104	87.9
CCn1c(OCC(F)(F)F)nnc1[C@@H](C)NS(=O)(=O)c1ccc(C)c(C)c1 [Compound 493]				105	88.3

Structure (SMILES)	inhibition at 10 µM (human Edg-1(S1P1) [1]; [3]) [%]	inhibition at 10 µM (human Edg-1(S1P1) [2]; [4]) [%]	melting point [°C]	inhibition at 10 µM (human Edg-1(S1P1) [1]; [5]) [%]	inhibition at 10 µM (human Edg-1(S1P1) [2]; [6]) [%]
CCn1c(OCC(F)(F)F)nnc1[C@@H](C)NS(=O)(=O)c1ccc(C)c(F)c1 [Compound 494]				102	87.1
CCn1c(OCC(F)(F)F)nnc1[C@@H](C)NS(=O)(=O)c1ccc2ccccc2c1 [Compound 495]				104	89.9
CCn1c(OCC(F)(F)F)nnc1[C@@H](C)NS(=O)(=O)c1ccc(F)c(F)c1 [Compound 496]				103	75.7
CCn1c(OCC(F)(F)F)nnc1[C@@H](C)NS(=O)(=O)c1cccc(OC(F)F)c1 [Compound 497]				102	66.5
CCn1c(OCC(F)(F)F)nnc1[C@@H](C)NS(=O)(=O)c1cccc(Cl)c1C [Compound 498]				104	88.5
CCn1c(OCC(F)(F)F)nnc1[C@@H](C)NS(=O)(=O)c1ccc2nsnc2c1 [Compound 499]				107	89.1
CCn1c(OCC(F)(F)F)nnc1[C@@H](C)NS(=O)(=O)c1ccc(C(F)(F)F)cc1 [Compound 500]				103	81.6
CCn1c(OCC(F)(F)F)nnc1[C@@H](C)NS(=O)(=O)c1cc(F)cc(F)c1 [Compound 501]				102	55.4
CCn1c(OCC(F)(F)F)nnc1[C@@H](C)NS(=O)(=O)c1ccc(Br)c(Br)c1 [Compound 502]				108	86.3
CCn1c(OCC(F)(F)F)nnc1[C@@H](C)NS(=O)(=O)c1cccc(C(F)(F)F)c1 [Compound 503]				104	73.3
CCn1c(OCC(F)(F)F)nnc1[C@@H](C)NS(=O)(=O)c1cccc(OC(F)(F)F)c1 [Compound 504]				96.6	54
CCn1c(OCC(F)(F)F)nnc1[C@@H](C)NS(=O)(=O)c1cccc(C)c1 [Compound 505]				103	74.4
CCn1c(OCC(F)(F)F)nnc1[C@@H](C)NS(=O)(=O)c1cc(Cl)c(Cl)s1 [Compound 510]				106	70.9
CCn1c(OCC(F)(F)F)nnc1[C@@H](C)NS(=O)(=O)c1ccc(I)cc1 [Compound 511]				99	85.4
CCn1c(OCC(F)(F)F)nnc1[C@@H](C)NS(=O)(=O)c1ccc(F)cc1 [Compound 512]				105	71.5
CCn1c(OCC(F)(F)F)nnc1[C@@H](C)NS(=O)(=O)c1ccc(Br)c(C(F)(F)F)c1 [Compound 513]				98.8	55.2
CCn1c(OCC(F)(F)F)nnc1[C@@H](C)NS(=O)(=O)c1cccc(Cl)c1 [Compound 514]				98.4	86.7
CCc1ccc(S(=O)(=O)N[C@H](C)c2nnc(OCC(F)(F)F)n2CC)cc1 [Compound 515]				103	62.4
CCn1c(OCC(F)(F)F)nnc1[C@@H](C)NS(=O)(=O)c1cccc(OC)c1 [Compound 516]				101	61.9
CCn1c(OCC(F)(F)F)nnc1[C@@H](C)NS(=O)(=O)c1cc(F)c(Br)cc1F [Compound 517]				93.7	42.7
CCCn1c(OC)nnc1[C@@H](C)NS(=O)(=O)c1ccc(Cl)cc1 [Compound 541]				97.1	75.8
COc1nnc([C@@H](C)NS(=O)(=O)c2ccc(Cl)cc2)n1C(C)C [Compound 542]				99.9	92.3
COc1nnc([C@@H](C)NS(=O)(=O)c2ccc(Cl)cc2)n1C1CC1 [Compound 543]				93.1	101
CCCCn1c(OC)nnc1[C@@H](C)NS(=O)(=O)c1ccc(Cl)cc1 [Compound 544]				47.5	100
